Source: patent publication US4345938A, “Herbicidal 2-haloacetanilides” (Monsanto Company, priority 1980, dated 1982)
Where two headings read alike, the source gives them in different places.

What was measured:
Rice [1] = assay: Greenhouse transplant rice test, rice injury; assay type: in vivo, Rice (Bluebelle); details: Oryza sativa, about 3 WAT, read-out: Percent Inhibition, Rice
Text: (§1) The test procedure used in this greenhouse test is as follows: Ray silt loam top soil containing about 0.05% by weight of krillium and sifted through a […] screen is fumigated about 5-10 days prior to use. Pots are then filled with said Ray silt loam soil to a level to allow for a 1 in. (2.54 cm) flooding depth. Rice plants (Bluebelle) of 2 to 3 weeks age are transplanted to the pots and bulbs or seeds of the test weeds also planted in the pots. The pots are then flooded and the test chemical applied to the surface of the flood water. The flood water is reduced to allow for germination of the Echinochloa crus-galli (barnyardgrass) seed and subsequently reflooded and maintained in that condition. Observations of percent inhibition using a scale of 0-100% are made about 3 weeks after transplant (WAT).
(§2) The test data in Table III for all compounds was obtained under identical test conditions. The weeds used in the tests herein have the following abbreviations in the tables: Echinochloa crus-galli (EC), Monochloria vaginalis (MV), Cyperus Serotinus (CS), Eleocharis Kuroguwai (EK) and Sagittaria trifolia (ST).

Monochoria vaginalis [2] = assay: Field transplant rice test, applied 0 DAT, MV; assay type: in vivo; details: Pontederia vaginalis, 0 h, read-out: Percent Inhibition, MV; for inhibition at 375 g/ha: 0.375 Kg/Ha; for inhibition at 750 g/ha: 0.75 Kg/Ha; for inhibition at 1500 g/ha: 1.5 Kg/Ha; for inhibition at 3000 g/ha: 3.0 Kg/Ha
In short: (§3)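 Field test in transplanted rice, herbicide applied as granules (2.5% or 5.0% w/w active) at transplanting (0 DAT). Rates from 3.0 kg/ha down to 0.375 kg/ha. Weed control observed weekly from 2 to 6 weeks after transplant, reported at 2, 4 and 6 WAT.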

Eleocharis kuroguwai = assay: Field transplant rice test, applied 0 DAT, EK; assay type: in vivo; details: 0 h, read-out: Percent Inhibition, EK; for inhibition at 375 g/ha: 0.375 Kg/Ha; for inhibition at 750 g/ha: 0.75 Kg/Ha; for inhibition at 1500 g/ha: 1.5 Kg/Ha; for inhibition at 3000 g/ha: 3.0 Kg/Ha
In short: as §3

Sagittaria trifolia [3] = assay: Greenhouse transplant rice test, ST; assay type: in vivo
Text: as §1, §2

Rice [4] = assay: Field transplant rice test, applied 0 DAT, rice injury; assay type: in vivo; details: for inhibition at 375 g/ha / inhibition at 750 g/ha / inhibition at 1500 g/ha / inhibition at 3000 g/ha: Oryza sativa, 0 h, read-out: Percent Inhibition, Rice; for inhibition at 375 g/ha: 0.375 Kg/Ha; for inhibition at 750 g/ha: 0.75 Kg/Ha; for inhibition at 1500 g/ha: 1.5 Kg/Ha; for inhibition at 3000 g/ha: 3.0 Kg/Ha
In short: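 Field test in transplant rice with herbicide applied as granules at transplanting (0 DAT), at rates from 3.0 kg/ha down to 0.375 kg/ha. Injury was rated weekly from 2 to 6 weeks after transplant. Granules held 2.5% or 5.0% herbicide by weight, depending on compound.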

Sagittaria trifolia [5] = assay: Field transplant rice test, applied 0 DAT, ST; assay type: in vivo; details: 0 h, read-out: Percent Inhibition, ST; for inhibition at 375 g/ha: 0.375 Kg/Ha; for inhibition at 750 g/ha: 0.75 Kg/Ha; for inhibition at 1500 g/ha: 1.5 Kg/Ha; for inhibition at 3000 g/ha: 3.0 Kg/Ha
In short: as §3

Sagittaria trifolia [6] = assay: Field transplant rice test, applied 9 DAT, ST; assay type: in vivo; details: 216 h, read-out: Percent Inhibition, ST; for inhibition at 375 g/ha: 0.375 Kg/Ha; for inhibition at 750 g/ha: 0.75 Kg/Ha; for inhibition at 1500 g/ha: 1.5 Kg/Ha; for inhibition at 3000 g/ha: 3.0 Kg/Ha
In short: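 Field test in transplant rice: herbicides applied 9 DAT as granules (2.5% or 5.0% by weight active) at 3.0 down to 0.375 kg/ha. Weed control observed weekly from 3 to 7 WAT.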

Monochoria vaginalis [7] = assay: Greenhouse transplant rice test, MV; assay type: in vivo; details: Pontederia vaginalis, about 3 WAT, read-out: Percent Inhibition, MV
Text: as §1, §2

Cyperus serotinus = assay: Field transplant rice test, applied 0 DAT, CS; assay type: in vivo; details: 0 h, read-out: Percent Inhibition, CS; for inhibition at 375 g/ha: 0.375 Kg/Ha; for inhibition at 750 g/ha: 0.75 Kg/Ha; for inhibition at 1500 g/ha: 1.5 Kg/Ha; for inhibition at 3000 g/ha: 3.0 Kg/Ha
In short: as §3

In the case of `CCCCOc1cccc(CC)c1N(C)C(=O)CCl` [Example 1, N-methyl-2'-n-butoxy-6'-ethyl-2-chloroacetanilide], the inhibition at 280 g/ha (Rice [1]; 0.28 Kg/Ha) is reported as 5%, the inhibition at 560 g/ha (Rice [1]; 0.56 Kg/Ha) is reported as 0% and the inhibition at 1120 g/ha (Rice [1]; 1.12 Kg/Ha) is reported as 15%. For the same compound, the inhibition at 2240 g/ha (Rice [1]; 2.24 Kg/Ha) was 20%, the inhibition at 375 g/ha (Monochoria vaginalis [2]; 2 WAT) was 98% and the inhibition at 375 g/ha (Monochoria vaginalis [2]; 4 WAT) was 100%. The inhibition at 375 g/ha (Monochoria vaginalis [2]; 6 WAT) was 93%, the inhibition at 750 g/ha (Monochoria vaginalis [2]; 2 WAT) was 100% and the inhibition at 750 g/ha (Monochoria vaginalis [2]; 4 WAT) was 99%. It also gave an inhibition at 750 g/ha (Monochoria vaginalis [2]; 6 WAT) of 97%, an inhibition at 1500 g/ha (Monochoria vaginalis [2]; 2 WAT) of 100% and an inhibition at 1500 g/ha (Monochoria vaginalis [2]; 4 WAT) of 100%. The inhibition at 1500 g/ha (Monochoria vaginalis [2]; 6 WAT) was 100%, the inhibition at 3000 g/ha (Monochoria vaginalis [2]; 2 WAT) was 100% and the inhibition at 3000 g/ha (Monochoria vaginalis [2]; 4 WAT) was 100%. For the same compound, the inhibition at 3000 g/ha (Monochoria vaginalis [2]; 6 WAT) was 100%, the inhibition at 375 g/ha (Eleocharis kuroguwai; 2 WAT) was 73% and the inhibition at 375 g/ha (Eleocharis kuroguwai; 4 WAT) was 40%. For the same compound, the inhibition at 375 g/ha (Eleocharis kuroguwai; 6 WAT) was 3%, the inhibition at 750 g/ha (Eleocharis kuroguwai; 2 WAT) was 82% and the inhibition at 750 g/ha (Eleocharis kuroguwai; 4 WAT) was 75%. It also gave an inhibition at 750 g/ha (Eleocharis kuroguwai; 6 WAT) of 50%, an inhibition at 1500 g/ha (Eleocharis kuroguwai; 2 WAT) of 87% and an inhibition at 1500 g/ha (Eleocharis kuroguwai; 4 WAT) of 83%. For the same compound, the inhibition at 1500 g/ha (Eleocharis kuroguwai; 6 WAT) was 37%, the inhibition at 3000 g/ha (Eleocharis kuroguwai; 2 WAT) was 97% and the inhibition at 3000 g/ha (Eleocharis kuroguwai; 4 WAT) was 92%. For the same compound, the inhibition at 3000 g/ha (Eleocharis kuroguwai; 6 WAT) was 65%, the “selective control of ST in rice” value (Sagittaria trifolia [3]; 0.56 kg/ha) was “positive selective control” and the inhibition at 280 g/ha (Sagittaria trifolia [3]; Sagittaria trifolia, 0.28 Kg/Ha, about 3 WAT, read-out: Percent Inhibition, ST) was 75%. It also gave an inhibition at 560 g/ha (Sagittaria trifolia [3]; Sagittaria trifolia, 0.56 Kg/Ha, about 3 WAT, read-out: Percent Inhibition, ST) of 85%, an inhibition at 1120 g/ha (Sagittaria trifolia [3]; Sagittaria trifolia, 1.12 Kg/Ha, about 3 WAT, read-out: Percent Inhibition, ST) of 85% and an inhibition at 2240 g/ha (Sagittaria trifolia [3]; Sagittaria trifolia, 2.24 Kg/Ha, about 3 WAT, read-out: Percent Inhibition, ST) of 90%. For the same compound, the safety in rice (Rice [4]) was “safe in rice at rates above 1.5 kg/ha and slightly less than 3.0 kg/ha”, the inhibition at 375 g/ha (Rice [4]; 2 WAT) was 10% and the inhibition at 375 g/ha (Rice [4]; 4 WAT) was 7%. The inhibition at 375 g/ha (Rice [4]; 6 WAT) was 5%, the inhibition at 750 g/ha (Rice [4]; 2 WAT) was 3% and the inhibition at 750 g/ha (Rice [4]; 4 WAT) was 0%. It also gave an inhibition at 750 g/ha (Rice [4]; 6 WAT) of 2%, an inhibition at 1500 g/ha (Rice [4]; 2 WAT) of 5% and an inhibition at 1500 g/ha (Rice [4]; 4 WAT) of 0%. It also gave an inhibition at 1500 g/ha (Rice [4]; 6 WAT) of 2%, an inhibition at 3000 g/ha (Rice [4]; 2 WAT) of 25% and an inhibition at 3000 g/ha (Rice [4]; 4 WAT) of 22%. It also gave an inhibition at 3000 g/ha (Rice [4]; 6 WAT) of 23%, an inhibition at 375 g/ha (Sagittaria trifolia [5]; 2 WAT) of 42% and an inhibition at 375 g/ha (Sagittaria trifolia [5]; 4 WAT) of 8%. It also gave an inhibition at 375 g/ha (Sagittaria trifolia [5]; 6 WAT) of 5%, an inhibition at 750 g/ha (Sagittaria trifolia [5]; 2 WAT) of 43% and an inhibition at 750 g/ha (Sagittaria trifolia [5]; 4 WAT) of 12%. It also gave an inhibition at 750 g/ha (Sagittaria trifolia [5]; 6 WAT) of 8%, an inhibition at 1500 g/ha (Sagittaria trifolia [5]; 2 WAT) of 30% and an inhibition at 1500 g/ha (Sagittaria trifolia [5]; 4 WAT) of 8%. For the same compound, the inhibition at 1500 g/ha (Sagittaria trifolia [5]; 6 WAT) was 5%, the inhibition at 3000 g/ha (Sagittaria trifolia [5]; 2 WAT) was 47% and the inhibition at 3000 g/ha (Sagittaria trifolia [5]; 4 WAT) was 22%. The inhibition at 3000 g/ha (Sagittaria trifolia [5]; 6 WAT) was 18%, the inhibition at 375 g/ha (Sagittaria trifolia [6]; 3 WAT) was 50% and the inhibition at 375 g/ha (Sagittaria trifolia [6]; 5 WAT) was 23%. It also gave an inhibition at 375 g/ha (Sagittaria trifolia [6]; 7 WAT) of 18%, an inhibition at 750 g/ha (Sagittaria trifolia [6]; 3 WAT) of 43% and an inhibition at 750 g/ha (Sagittaria trifolia [6]; 5 WAT) of 33%. It also gave an inhibition at 750 g/ha (Sagittaria trifolia [6]; 7 WAT) of 13%, an inhibition at 1500 g/ha (Sagittaria trifolia [6]; 3 WAT) of 40% and an inhibition at 1500 g/ha (Sagittaria trifolia [6]; 5 WAT) of 13%. The inhibition at 1500 g/ha (Sagittaria trifolia [6]; 7 WAT) was 7%, the inhibition at 3000 g/ha (Sagittaria trifolia [6]; 3 WAT) was 72% and the inhibition at 3000 g/ha (Sagittaria trifolia [6]; 5 WAT) was 43%. For the same compound, the inhibition at 3000 g/ha (Sagittaria trifolia [6]; 7 WAT) was 38%, the inhibition at 280 g/ha (Monochoria vaginalis [7]; 0.28 Kg/Ha) was 100% and the inhibition at 560 g/ha (Monochoria vaginalis [7]; 0.56 Kg/Ha) was 100%. The inhibition at 1120 g/ha (Monochoria vaginalis [7]; 1.12 Kg/Ha) was 100%, the inhibition at 2240 g/ha (Monochoria vaginalis [7]; 2.24 Kg/Ha) was 100% and the inhibition at 375 g/ha (Cyperus serotinus; 2 WAT) was 77%. For the same compound, the inhibition at 375 g/ha (Cyperus serotinus; 4 WAT) was 73%, the inhibition at 375 g/ha (Cyperus serotinus; 6 WAT) was 50% and the inhibition at 750 g/ha (Cyperus serotinus; 2 WAT) was 62%. For the same compound, the inhibition at 750 g/ha (Cyperus serotinus; 4 WAT) was 53%, the inhibition at 750 g/ha (Cyperus serotinus; 6 WAT) was 25% and the inhibition at 1500 g/ha (Cyperus serotinus; 2 WAT) was 92%. For the same compound, the inhibition at 1500 g/ha (Cyperus serotinus; 4 WAT) was 83%, the inhibition at 1500 g/ha (Cyperus serotinus; 6 WAT) was 73% and the inhibition at 3000 g/ha (Cyperus serotinus; 2 WAT) was 95%. For the same compound, the inhibition at 3000 g/ha (Cyperus serotinus; 4 WAT) was 99% and the inhibition at 3000 g/ha (Cyperus serotinus; 6 WAT) was 100%.
